{"source": "patent US9738932B2", "about": "“Biomarkers for cardiovascular side-effects induced by cox-2 inhibitory compounds” (FIRALIS SAS, priority 2005, dated 2017)", "key": {"[1]": {"system": "veins (vascular tissue)", "assay": "Histopathological evaluation of tissues of treated monkeys", "assay_type": "in vivo, cynomolgus monkey (Macaca fascicularis)", "conditions": "animal A60055, 50 mg/kg/day oral gavage, two weeks", "text": "Administration of compounds.\nGene expression profiles."}, "[2]": {"system": "INFγ", "assay": "ELISA of INFγ protein in monkey serum and plasma", "assay_type": "in vivo, cynomolgus monkey (Macaca fascicularis)", "conditions": "monkey #A60055", "text": "FIG. 7. ELISA confirmation of INFγ protein level in monkey serum and plasma samples.\nThese peripheral biomarkers might allow safe use of cox-2 inhibitory compounds in clinics and selection of cox-2 inhibitory follow-up compounds without cardiovascular toxicity."}}, "note": "Entries after “also recorded” stand apart in the source; their conditions may differ."}
{"smiles": "CS(=O)(=O)c1ccc(C2=C(c3ccccc3)C(=O)OC2)cc1", "note": "[Vioxx®, rofecoxib]", "values": [{"measurement": "histopathological vascular findings", "setting": "[1]", "result": "focal vascular necrosis in the veins; also recorded: clear sign of vasculitis in veins"}, {"measurement": "INFγ protein expression by ELISA", "setting": "[2]", "result": "Increased expression"}]}
